Test results from patent US7365160B2, “Mutated constitutively active nuclear orphan receptor” (The United States of America as represented by the …, priority 2002, dated 2008).

Key:
[1] = molecular target: wild-type mouse CAR (mCAR; nuclear orphan receptor constitutively active receptor / constitutive androstane receptor) (mouse); assay: cell-based or functional assay
[2] = molecular target: mCAR T350M mutant (mouse); assay: cell-based or functional assay
[3] = molecular target: T1, mCAR (Mus musculus, UniProt O35627); assay: cell-based transfection assay, (NR1)5-tk-luciferase reporter in HepG2 cells, wild-type mCAR; details: for degree of repression: not affected by the mutation of Thr350
T1 construct: mCAR and hCAR expression vectors were constructed by cloning an entire mCAR; expressed in transfected cells; host or cells: HepG2
T1 sequence (O35627 1-358): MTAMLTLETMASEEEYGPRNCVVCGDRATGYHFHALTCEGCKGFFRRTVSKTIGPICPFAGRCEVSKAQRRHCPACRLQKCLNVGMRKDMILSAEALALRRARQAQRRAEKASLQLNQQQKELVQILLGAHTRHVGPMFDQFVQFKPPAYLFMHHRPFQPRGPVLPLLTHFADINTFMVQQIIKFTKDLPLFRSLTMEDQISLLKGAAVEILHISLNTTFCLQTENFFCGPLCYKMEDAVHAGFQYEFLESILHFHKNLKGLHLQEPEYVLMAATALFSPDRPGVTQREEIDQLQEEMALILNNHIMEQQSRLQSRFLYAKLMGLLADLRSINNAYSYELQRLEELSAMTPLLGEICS
From the text: mCAR and hCAR expression vectors were constructed by cloning an entire mCAR (GenBank Accession No: AF009327, deposited on Jul. 22, 1997; SEQ ID NO: 15) or hCAR (GenBank Accession No: Z30425, deposited on Mar. 8, 1994; SEQ ID NO: 17) coding sequence into BamHI and XhoI sites of pCR3 plasmid as described previously (Sueyoshi et al., J Biol Chem 274:6043-6, 1999). Polymerase chain reaction (PCR) was used to amplify the desired hCAR or mCAR fragment from the plasmid. The amplified fragments used for the chimeras were nucleotides encoding amino acids: 1 to 86 of mCAR and 77 to 348 of hCAR (mhh), 1 to 116 of mCAR and 107 to 348 of hCAR (mmh), 1 to 76 of hCAR and 87 to 358 of mCAR (hmm), 1 to 106 of hCAR and 117 to 358 of mCAR (hhm). These fragments were PCR amplified using pfu polymerase and enzymatically phosphorylated primers. The amplified fragments were ligated, and a second PCR amplification was performed on the ligated DNA with the primers for 5′ and 3′ end of the chimeric DNA. The resulting second PCR products were cloned into a pCR3 vector (Invitrogen) with newly created BamHI and XhoI sites at the 5′ and the 3′ ends, respectively.
A mouse SRC-1 cDNA corresponding to amino acid residues 633 to 1450 of SRC-1 (GenBank Accession No: U64828), was amplified and cloned into the EcoRI and Hind III site of pcDNA3.1/myc-His(−)B plasmid (Invitrogen), thereby generating the SRC-1-expression plasmid pcDNA3.1-SRC-1. Wild-type mCAR or mCART350M was co-transfected with or without the SRC-1-expression plasmid (0.1 μg) into HepG2 cells.
The KN-62 repression was examined with and without the co-expression of SRC-1 (EXAMPLE 3).

[4] = molecular target: T2, mCART350M (Mus musculus, UniProt O35627, T350M); assay: luciferase reporter assay in HepG2 cells, mutant mCART350M; assay type: cell-based
T2 construct: mCAR and hCAR expression vectors were constructed by cloning an entire mCAR; expressed in transfected cells; host or cells: HepG2
T2 sequence (O35627 1-358 T350M): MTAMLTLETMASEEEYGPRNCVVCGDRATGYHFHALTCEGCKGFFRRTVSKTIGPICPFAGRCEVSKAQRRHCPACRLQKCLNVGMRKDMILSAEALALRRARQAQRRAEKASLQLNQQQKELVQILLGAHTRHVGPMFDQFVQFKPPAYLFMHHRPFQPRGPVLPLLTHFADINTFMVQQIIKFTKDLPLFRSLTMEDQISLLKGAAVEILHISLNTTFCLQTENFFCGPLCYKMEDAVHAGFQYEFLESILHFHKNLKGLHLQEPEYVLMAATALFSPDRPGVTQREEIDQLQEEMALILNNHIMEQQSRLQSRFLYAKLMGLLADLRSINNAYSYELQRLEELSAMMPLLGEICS
Procedure: The transfected cells were then treated, and luciferase assays performed as described in EXAMPLE 1.
To determine if this effect could be disrupted by mutating Thr350 to a Met, the mCART350M mutant described in EXAMPLE 2 was used. The KN-62 repression was examined with and without the co-expression of SRC-1 (EXAMPLE 3).

[5] = test system: chimeric receptors hmm and hhm; assay: luciferase reporter assay in HepG2 cells, chimeric receptors with mouse LBD; assay type: cell-based, mouse/human; details: chimeras hmm and hhm
[6] = molecular target: T3, hCAR (Homo sapiens, UniProt Q14994); details: Kawamoto et al. 2000; cited from earlier work
T3 construct: expressed in transfected cells; host or cells: HepG2
T3 sequence (Q14994 1-348 isoform Q14994-2): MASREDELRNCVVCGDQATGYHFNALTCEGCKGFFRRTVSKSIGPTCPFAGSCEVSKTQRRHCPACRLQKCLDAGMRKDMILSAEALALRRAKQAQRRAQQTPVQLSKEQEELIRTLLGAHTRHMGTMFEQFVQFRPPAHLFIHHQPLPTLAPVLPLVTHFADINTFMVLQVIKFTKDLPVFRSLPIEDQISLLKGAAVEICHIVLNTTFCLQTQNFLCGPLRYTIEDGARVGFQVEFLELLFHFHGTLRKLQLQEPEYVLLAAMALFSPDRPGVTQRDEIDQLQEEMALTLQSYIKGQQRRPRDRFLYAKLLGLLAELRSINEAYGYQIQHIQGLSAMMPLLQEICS

[7] = molecular target: T1, mCAR; details: Kawamoto et al. 2000; cited from earlier work
[8] = test system: chimeric receptors mh159, mh224, mh315, mh345; assay: luciferase reporter assay in HepG2 cells, chimeric receptors within the LBD; assay type: cell-based, mouse/human
[9] = molecular target: T4, mCAR L352A (Mus musculus, UniProt O35627, L352A); assay: luciferase reporter gene activation assay (PBREM) in HepG2 cells, mCAR L352A mutant; assay type: cell-based; details: only in the presence of exogenous SRC-1
T4 construct: mCAR and hCAR expression vectors were constructed by cloning an entire mCAR; expressed in transfected cells; host or cells: HepG2
T4 sequence (O35627 1-358 L352A): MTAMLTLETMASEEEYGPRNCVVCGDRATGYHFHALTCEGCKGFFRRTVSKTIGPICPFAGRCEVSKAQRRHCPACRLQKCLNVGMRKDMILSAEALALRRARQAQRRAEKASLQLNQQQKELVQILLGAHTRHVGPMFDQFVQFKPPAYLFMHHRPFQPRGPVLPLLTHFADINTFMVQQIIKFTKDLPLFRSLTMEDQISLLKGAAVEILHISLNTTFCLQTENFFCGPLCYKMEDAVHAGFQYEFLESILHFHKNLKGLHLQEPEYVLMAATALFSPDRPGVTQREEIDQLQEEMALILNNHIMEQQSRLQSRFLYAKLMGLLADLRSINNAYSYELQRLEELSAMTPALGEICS
From the text: To examine the role of Leu352 in mCAR activity, site-directed mutagenesis was used as described in EXAMPLES 2 and 6.

[10] = test system: PB-responsive enhancer module (PBREM) luciferase reporter; assay: constitutive activity of mutated CAR in luciferase reporter gene activation assay in HepG2 cells; details: mCAR mutants versus mCAR

Molecule: mouse steroid receptor co-activator 1 (SRC-1), amino acid residues 633 to 1450 (from UniProt P70365 633-1447)
- trans-activation activity (NR1-luciferase reporter gene activity in co-transfected HepG2 cells, relative to DMSO-treated cells) [1]: 3 to 4 fold
- trans-activation activity (NR1-luciferase reporter gene activity in co-transfected HepG2 cells, relative to DMSO-treated cells) [2]: 3 to 4 fold

Molecule: C[C@]12CC[C@H]3[C@@H](CCC4=CC(=O)CC[C@@]43C)[C@@H]1CC[C@@H]2O [testosterone]
- repression of mCAR activity (luciferase reporter) ([3]; wild-type mCAR, HepG2 cells, 24 hours treatment): repressed
- repression of mCART350M activity ([4]; HepG2 cells): not the T350M mutant

Molecule: CN([C@@H](Cc1ccc(OS(=O)(=O)c2cccc3cnccc23)cc1)C(=O)N1CCN(c2ccccc2)CC1)S(=O)(=O)c1cccc2cnccc12 [KN-62]
- degree of repression ([3]; in the absence of SRC-1): 20-30%
- degree of repression ([3]; in the presence of co-expressed SRC-1): 80%
- repression of receptor activity by KN-62 ([3]; wild-type mCAR, KN-62 0.1-10 μM, with and without SRC-1): similarly repressed
- repression of chimera activity [5]: 2-4 fold
- repression of constitutive activity of hCAR [6]: not hCAR
- repression of receptor activity by KN-62 ([4]; mCART350M, KN-62 0.1-10 μM, with and without SRC-1): similarly repressed
- repression of constitutive activity of mCAR [7]: represses

Molecule: CC(=O)[C@H]1CC[C@H]2[C@@H]3CCC4=CC(=O)CC[C@]4(C)[C@H]3CC[C@]12C [progesterone]
- repression of chimeric receptor activity [8]: None of these chimeric receptors was repressed

Molecule: CN(C)CCCN1c2ccccc2Sc2ccc(Cl)cc21 [chloropromazine]
- activation of L352A mutant [9]: activated

B1: SRC-1: co-activator steroid receptor co-activator 1, mouse residues 633 to 1450 expressed from pcDNA3.1-SRC-1 (protein)
chain: TSHKLVQLLTTTAEQQLRHADIDTSCKDVLSCTGTSSSASSNPSGGTCPSSHSSLTERHKILHRLLQEGSPSDITTLSVEPEKKDSVPASTAVSVSGQSQGSASIKLELDAAKKKESKDHQLLRYLLDKDEKDLRSTPNLCLDDVKVKVEKKEQMDPCNTNPTPMTKPAPEEVKLESQSQFTADLDQFDQLLPTLEKAAQLPSLCETDRMDGAVTGVSIKAEVLPASLQPTTARAAPRLSRLPELELEAIDNQFGQPGAGDQIPWANNTLTTINQNKPEDQCISSQLDELLCPPTTVEGRNDEKALLEQLVSFLSGKDETELAELDRALGIDKLVQGGGLDVLSERFPPQQATPPLMMEDRPTLYSQPYSSPSPTAGLSGPFQGMVRQKPSLGAMPVQVTPPRGTFSPNMGMQPRQTLNRPPAAPNQLRLQLQQRLQGQQQLMHQNRQAILNQFAANAPVGMNMRSGMQQQITPQPPLNAQMLAQRQRELYSQQHRQRQIIQQQRAMLMRHQSFGNNIPPSSGLPVQMGTPRLPQGAPQQFPYPPNYGTNPGTPPASTSPFSQLAANPEASLATRSSMVNRGMAGNMGGQFGAGISPQMQQNVFQYPGPGLVPQGEATFAPSLSPGSSMVPMPVPPPQSSLLQQTPPTSGYQSPDMKAWQQGTMGNNNVFSQAVQSQPAPAQPGVYNNMSITVSMAGGNANIQNMNPMMGQMQMSSLQMPGMNTVCSEQMNDPALRHTGLYCNQLSSTDLLKTDADGNQQVQQVQVFADVQCTVNLVGGDPYLNQPGPLGTQKPTSGPQTPQAQQKSLLQQLLTE
- increase of trans-activation activity by co-expression ([3]; wild-type mCAR, relative to DMSO-treated cells): 3- to 4 fold
- increase of trans-activation activity by co-expression ([4]; mCART350M, relative to DMSO-treated cells): 3- to 4 fold

B2: T176V: mCAR with single mutation of Thr176 to valine (protein, UniProt O35627 1-358, looked up, variant T176V)
Nuclear receptor subfamily 1 …: MTAMLTLETMASEEEYGPRNCVVCGDRATGYHFHALTCEGCKGFFRRTVSKTIGPICPFAGRCEVSKAQRRHCPACRLQKCLNVGMRKDMILSAEALALRRARQAQRRAEKASLQLNQQQKELVQILLGAHTRHVGPMFDQFVQFKPPAYLFMHHRPFQPRGPVLPLLTHFADINVFMVQQIIKFTKDLPLFRSLTMEDQISLLKGAAVEILHISLNTTFCLQTENFFCGPLCYKMEDAVHAGFQYEFLESILHFHKNLKGLHLQEPEYVLMAATALFSPDRPGVTQREEIDQLQEEMALILNNHIMEQQSRLQSRFLYAKLMGLLADLRSINNAYSYELQRLEELSAMTPLLGEICS
- constitutive activity of mCAR [10]: decreased

B3: T176L: mCAR with single mutation of Thr176 to leucine (protein, UniProt O35627 1-358, looked up, variant T176L)
Nuclear receptor subfamily 1 …: MTAMLTLETMASEEEYGPRNCVVCGDRATGYHFHALTCEGCKGFFRRTVSKTIGPICPFAGRCEVSKAQRRHCPACRLQKCLNVGMRKDMILSAEALALRRARQAQRRAEKASLQLNQQQKELVQILLGAHTRHVGPMFDQFVQFKPPAYLFMHHRPFQPRGPVLPLLTHFADINLFMVQQIIKFTKDLPLFRSLTMEDQISLLKGAAVEILHISLNTTFCLQTENFFCGPLCYKMEDAVHAGFQYEFLESILHFHKNLKGLHLQEPEYVLMAATALFSPDRPGVTQREEIDQLQEEMALILNNHIMEQQSRLQSRFLYAKLMGLLADLRSINNAYSYELQRLEELSAMTPLLGEICS
- constitutive activity of mCAR [10]: decreased

B4: L352A: mCAR with Ala substitution of Leu352 (protein, UniProt O35627 1-358, looked up, variant L352A)
Nuclear receptor subfamily 1 …: MTAMLTLETMASEEEYGPRNCVVCGDRATGYHFHALTCEGCKGFFRRTVSKTIGPICPFAGRCEVSKAQRRHCPACRLQKCLNVGMRKDMILSAEALALRRARQAQRRAEKASLQLNQQQKELVQILLGAHTRHVGPMFDQFVQFKPPAYLFMHHRPFQPRGPVLPLLTHFADINTFMVQQIIKFTKDLPLFRSLTMEDQISLLKGAAVEILHISLNTTFCLQTENFFCGPLCYKMEDAVHAGFQYEFLESILHFHKNLKGLHLQEPEYVLMAATALFSPDRPGVTQREEIDQLQEEMALILNNHIMEQQSRLQSRFLYAKLMGLLADLRSINNAYSYELQRLEELSAMTPALGEICS
- constitutive activity of mCAR [10]: decreased
